# From patent publication US20220315895A1, “METHODS OF MAKING OLIGOPOTENT AND UNIPOTENT PRECURSORS” (Transfusion Health, LLC, priority 2019, published 2022)
# How the values were obtained:
# Type in all cases: cell-based, human
# [1] = tested on: CD34+ cells from cord blood; assay: HSC Expansion Culture, 14 to 64 days (Example 42)
# Method: Cryopreserved CD34+ cells from cord blood were purchased from STEMCELL Technologies. Primary human CD34+ cells were isolated by the supplier from cord blood samples using positive immunomagnetic separation techniques. Cells were thawed, gradually brought to room temperature, then washed. Cells were primed for expansion with overnight culture in StemSpan SFEM I with 100 ng/mL each of FLT3L, TPO, SCF, and IL-6. Eighteen-to-twenty-four hours later (day 1), cells were counted and immunophenotyped (flow cytometry on an Invitrogen Attune N×T cytometer). Cells were then placed into “HSC Expansion Culture,” described here, or placed directly into Differentiation Culture with STEMCELL's Myeloid StemSpan Myeloid Expansion Supplement (Granulocyte). Media for expanding CD34+ cell numbers was prepared in StemSpan SFEM II (STEMCELL) and added to duplicate 25 cm^2 flasks (4 ml total volume per flask). Expansion Culture conditions also included an antibiotic solution containing penicillin, streptomycin, and amphotericin B to avoid contamination. Additional media components and concentrations used for the conditions tested were as described above in Table 9. All incubations for Expansion Culture took place at 3% oxygen (controlled by nitrogen) and 5% CO2. During Expansion Culture, samples were taken for cell counting and phenotyping. […]
# [2] = tested on: CD34+ cells from cord blood; assay: HSC Expansion Culture, 14 and 21 days (Example 41)
# Method: CD34+ cells from cord blood were purchased from STEMCELL Technologies.
# Primary human CD34+ cells were isolated by the supplier from cord blood samples using positive immunomagnetic separation techniques. Cells from two separate samples of cord blood were thawed, gradually brought to room temperature, then washed.
# For both samples, cells were primed with an overnight culture in StemSpan with 100 ng/ml each of FLT3L, TPO, SCF, and IL-6. Eighteen hours later (day 1), cells were counted and immunophenotyped (flow cytometry on an Invitrogen Attune N×T cytometer).
# The remainder of cells from both samples were placed into “HSC Expansion Culture” for either 14 days (“14-day expansion”) or 21 days (“21-day expansion”). Numbers of cells placed into HSC Expansion Culture were quantified for “Fold Expansion” calculations described below. […]
# During Expansion Culture, portions of cells were passaged to one or more larger flasks (75 cm^2 or 225 cm^2) if density of cells was greater than ≥1e5 cells/ml. […] Numbers of cells seeded were recorded for “Fold Expansion” calculations, described below.
# Following 21 days in Expansion Culture, a sample was taken from the 21-day expansion flask for counting and analysis of phenotypes (flow cytometry on an Invitrogen Attune N×T cytometer). […] CD34 purity was verified by flow cytometry and counts were recorded for calculation of Per-Assayed-CD34+ Cell Output, described below. […]
# CD15+/CD14− cells = assay: Phagocytosis assay with pHrodo green Staphylococcus aureus Bioparticles (Example 39); details: +Formula I Granulocyte Differentiation Cultures, day 13; 45 minutes at 37° C.
# Method: On day 13 of Granulocyte Differentiation Culture, a portion of the culture was removed for in vitro analysis of granulocyte function through two separate assays for phagocytosis and respiratory burst. In the phagocytosis assay, the function of the cultured cells in ingesting bacteria was measured. pHrodo green Staphylococcus aureus Bioparticles (ThermoFisher), which fluoresce only when in an acidic environment such as a cellular phagosome following phagocytosis, were first treated with an opsonizing reagent to mark the particles for phagocytosis. The particles were then added to cells and incubated at 37° C. for 45 minutes. “Ice” control samples were incubated on ice during this period to prevent endocytosis and enable a measure of background fluorescence. Following this incubation, cells were stained with antibodies to CD15 and CD14, washed thoroughly, then analyzed via flow cytometry on an Attune flow cytometer. CD15+/CD14− cells were quantified for presence of phagocytosed particles.
smiles,measurement,setting,value
CC(C)(C)C(=O)Nc1ccc2c(c1)C(O)c1ccccc1-2 (centres unmarked) [Compound 1.010],fold expansion in CD34+ cell numbers,"[1]; +Formula I conditions (Compound 1.010 8 μM), day 14",about 270 fold
same,fold expansion in CD34+ cell numbers,"[1]; +Formula I conditions, day 64","about 86,000 fold"
same,fold expansion of CD34+ cells,"[2]; +Formula I Condition (Compound 1.010 8 μM), 14 days",35 fold
same,fold expansion of CD34+ cells,"[2]; +Formula I Condition, 21-day expansion",245 fold
same,CD15+ cells positive for phagocytosed particles,CD15+/CD14− cells,89%
